Molecular target: human α7 nAChR (Homo sapiens (Human), UniProt P36544)
Experiment: Automated patch-clamp electrophysiology functional assay (Assay A)
Assay type: cell-based
Settings: IonFlux HT whole-cell population patch, HEK cells expressing human α7/RIC-3, 40 μM acetylcholine
Procedure, shortened: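 Whole-cell population patch clamp on HEK cells stably co-expressing human α7 and RIC-3, held at −60 mV, room temperature. Compounds tested at three ascending concentrations per recording with or without 40 μM acetylcholine; currents normalized to the 40 μM acetylcholine-evoked reference response to give agonist and potentiation EC50.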

Sequence of human α7 nAChR (P36544 23-502): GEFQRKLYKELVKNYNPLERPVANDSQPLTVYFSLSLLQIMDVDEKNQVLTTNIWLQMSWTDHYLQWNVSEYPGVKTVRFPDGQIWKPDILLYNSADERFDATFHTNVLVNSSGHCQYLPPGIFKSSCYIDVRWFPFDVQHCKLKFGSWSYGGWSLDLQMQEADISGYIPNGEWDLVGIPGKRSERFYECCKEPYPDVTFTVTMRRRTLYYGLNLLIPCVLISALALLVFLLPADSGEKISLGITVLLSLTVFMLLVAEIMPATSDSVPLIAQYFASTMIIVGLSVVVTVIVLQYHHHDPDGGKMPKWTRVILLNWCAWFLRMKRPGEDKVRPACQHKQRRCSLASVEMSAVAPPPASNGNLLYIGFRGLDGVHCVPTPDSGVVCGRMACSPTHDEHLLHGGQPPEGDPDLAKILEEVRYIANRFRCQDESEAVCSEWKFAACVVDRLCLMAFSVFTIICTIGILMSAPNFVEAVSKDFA

EC50 (electrophysiology EC50 values) | EC50 (potency class) | Compound
6600 nM | 5000 to 50000 nM | O=C(NCc1nc(Cc2ccccc2)no1)C1C2Oc3ccc(F)cc3C21 (stereo not drawn) [Example C42, exo-N-[(3-benzyl-1,2,4-oxadiazol-5-yl)methyl]-5-fluoro-1a,6b-dihydro-1H-cyclopropa[b][1]benzofuran-1-carboxamide]
1900 nM | 500 to 5000 nM | CC(NC(=O)C1C2Oc3ccc(F)cc3C21)c1ccno1 (stereo not drawn) [Example C43, exo-5-fluoro-N-[1-(1,2-oxazol-5-yl)ethyl]-1a,6b-dihydro-1H-cyclopropa[b][1]benzofuran-1-carboxamide]
– | 5000 to 50000 nM | COc1ccc(-c2cc(CNC(=O)C3C4Oc5ccc(F)cc5C43)on2)cc1 (stereo not drawn) [Example C44, exo-5-fluoro-N-{[3-(4-methoxyphenyl)-1,2-oxazol-5-yl]methyl}-1a,6b-dihydro-1H-cyclopropa[b][1]benzofuran-1-carboxamide]
– | 5000 to 50000 nM | COc1cc(CNC(=O)C2C3Oc4ccc(F)cc4C32)on1 (stereo not drawn) [Example C45, exo-5-fluoro-N-[(3-methoxy-1,2-oxazol-5-yl)methyl]-1a,6b-dihydro-1H-cyclopropa[b][1]benzofuran-1-carboxamide]
520 nM | 500 to 5000 nM | O=C(NCc1cc(-c2ccccn2)no1)C1C2Oc3ccc(F)cc3C21 (stereo not drawn) [Example C46, exo-5-fluoro-N-{[3-(pyridin-2-yl)-1,2-oxazol-5-yl]methyl}-1a,6b-dihydro-1H-cyclopropa[b][1]benzofuran-1-carboxamide]
– | 500 to 5000 nM | O=C(NCc1cc(Br)no1)C1C2Oc3ccc(F)cc3C21 (stereo not drawn) [Example C47, exo-N-[(3-bromo-1,2-oxazol-5-yl)methyl]-5-fluoro-1a,6b-dihydro-1H-cyclopropa[b][1]benzofuran-1-carboxamide]
550 nM | 500 to 5000 nM | O=C(NCc1cc(-c2ccccc2)no1)C1C2Oc3ccc(F)cc3C21 (stereo not drawn) [Example C48, exo-5-fluoro-N-[(3-phenyl-1,2-oxazol-5-yl)methyl]-1a,6b-dihydro-1H-cyclopropa[b][1]benzofuran-1-carboxamide]
270 nM | 100 to 500 nM | O=C(NCc1noc(-c2ccccc2)n1)C1C2Oc3ccc(F)cc3C21 (stereo not drawn) [Example C49, exo-5-fluoro-N-[(5-phenyl-1,2,4-oxadiazol-3-yl)methyl]-1a,6b-dihydro-1H-cyclopropa[b][1]benzofuran-1-carboxamide]
480 nM | 100 to 500 nM | O=C(NCc1nnc(-c2ccccc2)o1)C1C2Oc3ccc(F)cc3C21 (stereo not drawn) [Example C50, exo-5-fluoro-N-[(5-phenyl-1,3,4-oxadiazol-2-yl)methyl]-1a,6b-dihydro-1H-cyclopropa[b][1]benzofuran-1-carboxamide]
1000 nM | 500 to 5000 nM | COc1ccc(-c2noc(CNC(=O)C3C4Oc5ccc(F)cc5C43)n2)cn1 (stereo not drawn) [Example C51, exo-5-fluoro-N-{[3-(6-methoxypyridin-3-yl)-1,2,4-oxadiazol-5-yl]methyl}-1a,6b-dihydro-1H-cyclopropa[b][1]benzofuran-1-carboxamide]
– | 500 to 5000 nM | O=C(NCc1cc(-c2ccc(Cl)cc2)no1)C1C2Oc3ccc(F)cc3C21 (stereo not drawn) [Example C52, exo-N-{[3-(4-chlorophenyl)-1,2-oxazol-5-yl]methyl}-5-fluoro-1a,6b-dihydro-1H-cyclopropa[b][1]benzofuran-1-carboxamide]
1500 nM | 500 to 5000 nM | O=C(NCc1nc(-c2ccccc2)no1)C1C2Oc3ccc(F)cc3C21 (stereo not drawn) [Example C53, exo-5-fluoro-N-[(3-phenyl-1,2,4-oxadiazol-5-yl)methyl]-1a,6b-dihydro-1H-cyclopropa[b][1]benzofuran-1-carboxamide]

From patent publication US20240368109A1, “ALLOSTERIC MODULATORS OF NICOTINIC ACETYLCHOLINE RECEPTORS” (MERCK SHARP & DOHME LLC, priority 2021, published 2024)
